{"source": "patent US20260022096A1", "about": "“NOVEL SULFONAMIDES AND THEIR USE AS NEUROPROTECTIVE AND/OR NEURORESTORATIVE AGENTS” (GENECODE, priority 2022, published 2026)", "target": "T1, GFRα1-RET (Homo sapiens, UniProt P56159)", "T1 construct": "expressed in transfected cells; host or cells: MG87 murine fibroblasts, stably transfected", "T1 sequence (P56159 25-429 limits assumed)": "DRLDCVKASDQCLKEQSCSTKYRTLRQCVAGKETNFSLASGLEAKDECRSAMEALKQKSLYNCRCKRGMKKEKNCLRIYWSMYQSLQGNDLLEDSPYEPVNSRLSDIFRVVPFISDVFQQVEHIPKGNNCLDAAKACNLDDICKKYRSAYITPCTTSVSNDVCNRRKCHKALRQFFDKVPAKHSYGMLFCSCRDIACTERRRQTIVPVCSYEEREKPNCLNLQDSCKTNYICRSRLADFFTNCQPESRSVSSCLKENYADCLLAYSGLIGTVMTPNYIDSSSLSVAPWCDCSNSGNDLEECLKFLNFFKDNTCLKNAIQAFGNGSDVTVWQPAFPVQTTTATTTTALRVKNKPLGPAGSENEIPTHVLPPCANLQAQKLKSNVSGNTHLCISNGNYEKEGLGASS", "assay": "Elk1 reporter-gene (luciferase) assay in cells expressing GFRα1-RET", "assay_type": "cell-based", "conditions": "MG87 murine fibroblasts stably transfected with PathDetect Elk-1, GFRα1 and RET, 6 concentrations, agonist/activator activity", "experimental": "For ECso determination, a dose-response test was performed using 6 concentrations of each tested compound. Dose-response curves were fitted using the sigmoidal dose-response (variable slope) analysis in GraphPad Prism program (Graph Pad Inc) and ECso of agonist/activator activity was calculated. Dose-response experiments were all performed in duplicate, two times independently."}
{"smiles": "Cc1c(Cl)cc(S(=O)(=O)N(C)C(C)(C)C)cc1N1[C@@H]2CC[C@H]1CN(C(=O)c1ccc(F)cc1Cl)C2", "note": "[compound 132, N-tert-butyl-3-chloro-5-[(1S,5R)-3-(2-chloro-4-fluoro-benzoyl)-3,8-diazabicyclo[3.2.1]octan-8-yl]-N,4-dimethyl-benzenesulfonamide]", "values": [{"measurement": "EC50", "value": "< 1000", "unit": "nM"}]}
{"smiles": "O=C(c1ccc(F)cc1Cl)N1C[C@H]2CC[C@@H](C1)N2c1cc(S(=O)(=O)N2CCC(CCc3ccccc3)CC2)ccc1O", "note": "[compound 062]", "values": [{"measurement": "EC50", "value": "< 1000", "unit": "nM"}]}
{"smiles": "CN(C)Cc1ccc(S(=O)(=O)N2CCC(c3ccccc3)CC2)cc1N1[C@@H]2CC[C@H]1CN(C(=O)c1ccc(F)cc1Cl)C2", "note": "[compound 073, (2-chloro-4-fluoro-phenyl)-[(1S,5R)-8-[2-[(dimethylamino)methyl]-5-[(4-phenyl-1-piperidyl)sulfonyl]phenyl]-3,8-diazabicyclo[3.2.1]octan-3-yl]methanone]", "values": [{"measurement": "EC50", "value": "1000 to 10000", "unit": "nM"}]}
{"smiles": "CN1CCc2cc(S(=O)(=O)N3CCC(c4ccccc4)CC3)cc(N3[C@@H]4CC[C@H]3CN(C(=O)c3cc(F)c(F)cc3Cl)C4)c21", "note": "[compound 120, (2-chloro-4,5-difluoro-phenyl)-[(1S,5R)-8-[1-methyl-5-[(4-phenyl-1-piperidyl)sulfonyl]indolin-7-yl]-3,8-diazabicyclo[3.2.1]octan-3-yl]methanone]", "values": [{"measurement": "EC50", "value": "< 1000", "unit": "nM"}]}
{"smiles": "CC(C)(C)NS(=O)(=O)c1cc(Cl)c(O)c(N2[C@@H]3CC[C@H]2CN(C(=O)c2ccc(F)cc2Cl)C3)c1F", "note": "[compound 139, N-tert-butyl-5-chloro-3-[(1S,5R)-3-(2-chloro-4-fluoro-benzoyl)-3,8-diazabicyclo[3.2.1]octan-8-yl]-2-fluoro-4-hydroxy-benzenesulfonamide]", "values": [{"measurement": "EC50", "value": "< 1000", "unit": "nM"}]}
{"smiles": "CN(C(C)(C)C)S(=O)(=O)c1cc(Cl)c(OCc2cccnc2)c(N2[C@@H]3CC[C@H]2CN(C(=O)c2ccc(F)cc2Cl)C3)c1", "note": "[compound 137]", "values": [{"measurement": "EC50", "value": "< 1000", "unit": "nM"}]}
{"smiles": "CCCN(C)S(=O)(=O)c1ccc(C)c(N2[C@@H]3CC[C@H]2CN(C(=O)c2ccc(F)cc2Cl)C3)c1", "note": "[compound 068, 3-[(1S,5R)-3-(2-chloro-4-fluoro-benzoyl)-3,8-diazabicyclo[3.2.1]octan-8-yl]-N,4-dimethyl-N-propyl-benzenesulfonamide]", "values": [{"measurement": "EC50", "value": "< 1000", "unit": "nM"}]}
{"smiles": "CC(C)(C)NS(=O)(=O)c1cc(Cl)c(O)c(N2[C@@H]3CC[C@H]2CN(C(=O)c2ccc(F)cc2Cl)C3)c1", "note": "[compound 095, N-tert-butyl-3-chloro-5-[(1S,5R)-3-(2-chloro-4-fluoro-benzoyl)-3,8-diazabicyclo[3.2.1]octan-8-yl]-4-hydroxy-benzenesulfonamide]", "values": [{"measurement": "EC50", "value": "< 1000", "unit": "nM"}]}
{"smiles": "COc1ccc(S(=O)(=O)N(C)CCCF)cc1N1CCN(C(=O)c2ccc(F)cc2Cl)CC1C", "note": "(racemic) [compound 038, N-(3-fluoropropyl)-4-methoxy-N-methyl-3-[rac-(2S)-4-(2-chloro-4-fluoro-benzoyl)-2-methyl-piperazin-1-yl]benzenesulfonamide]", "values": [{"measurement": "EC50", "value": "1000 to 10000", "unit": "nM"}]}
{"smiles": "Cc1cc(S(=O)(=O)N2CCC(c3ccccc3)CC2)cc(N2[C@@H]3CC[C@H]2CN(C(=O)c2ccc(F)cc2Cl)C3)c1O", "note": "[compound 090, (2-chloro-4-fluoro-phenyl)-[(1S,5R)-8-[2-hydroxy-3-methyl-5-[(4-phenyl-1-piperidyl)sulfonyl]phenyl]-3,8-diazabicyclo[3.2.1]octan-3-yl]methanone]", "values": [{"measurement": "EC50", "value": "< 1000", "unit": "nM"}]}
{"smiles": "CN(CC1CC1)S(=O)(=O)c1cc(F)c(O)c(N2[C@@H]3CC[C@H]2CN(C(=O)c2ccc(F)cc2Cl)C3)c1", "note": "[compound 086, 3-[(1S,5R)-3-(2-chloro-4-fluoro-benzoyl)-3,8-diazabicyclo[3.2.1]octan-8-yl]-N-(cyclopropylmethyl)-5-fluoro-4-hydroxy-N-methyl-benzenesulfonamide]", "values": [{"measurement": "EC50", "value": "< 1000", "unit": "nM"}]}
{"smiles": "CCN(CC)S(=O)(=O)c1cnc(Cl)c(N2[C@@H]3CC[C@H]2CN(C(=O)c2ccc(F)cc2Cl)C3)c1", "note": "[compound 032, 6-chloro-5-[(1S,5R)-3-(2-chloro-4-fluoro-benzoyl)-3,8-diazabicyclo[3.2.1]octan-8-yl]-N,N-diethyl-pyridine-3-sulfonamide]", "values": [{"measurement": "EC50", "value": "1000 to 10000", "unit": "nM"}]}
{"smiles": "O=C(c1ccc(F)cc1Cl)N1C[C@H]2CC[C@@H](C1)N2c1cc(S(=O)(=O)N2CCC(c3ccccc3)CC2)ccc1CO", "note": "[compound 070, (2-chloro-4-fluoro-phenyl)-[(1S,5R)-8-[2-(hydroxymethyl)-5-[(4-phenyl-1-piperidyl)sulfonyl]phenyl]-3,8-diazabicyclo[3.2.1]octan-3-yl]methanone]", "values": [{"measurement": "EC50", "value": "< 1000", "unit": "nM"}]}
{"smiles": "CC1(NS(=O)(=O)c2cc(Cl)c(O)c(N3[C@@H]4CC[C@H]3CN(C(=O)c3ccc(F)cc3Cl)C4)c2)CCC1", "note": "[compound 102, 3-chloro-5-[(1S,5R)-3-(2-chloro-4-fluoro-benzoyl)-3,8-diazabicyclo[3.2.1]octan-8-yl]-4-hydroxy-N-(1-methylcyclobutyl) benzenesulfonamide]", "values": [{"measurement": "EC50", "value": "< 1000", "unit": "nM"}]}
{"smiles": "CC1(C)COCCN1S(=O)(=O)c1cc(Cl)c(O)c(N2[C@@H]3CC[C@H]2CN(C(=O)c2ccc(F)cc2Cl)C3)c1", "note": "[compound 131, [(1S,5R)-8-[3-chloro-5-(3,3-dimethylmorpholin-4-yl)sulfonyl-2-hydroxy-phenyl]-3,8-diazabicyclo[3.2.1]octan-3-yl]-(2-chloro-4-fluoro-phenyl)methanone]", "values": [{"measurement": "EC50", "value": "< 1000", "unit": "nM"}]}
{"smiles": "CCCN(C)S(=O)(=O)c1ccc(OC)c(N2CCN(C(=O)c3ccc(F)cc3C(F)(F)F)CC2C)c1", "note": "(racemic) [compound 021, 4-methoxy-N-methyl-N-propyl-3-[rac-(2S)-4-[4-fluoro-2-(trifluoromethyl)benzoyl]-2-methyl-piperazin-1-yl]benzenesulfonamide]", "values": [{"measurement": "EC50", "value": "1000 to 10000", "unit": "nM"}]}
{"smiles": "CCCN(C)S(=O)(=O)c1ccc(OCOC)c(N2[C@@H]3CC[C@H]2CN(C(=O)c2ccc(F)cc2Cl)C3)c1", "note": "[compound 031, 3-[(1S,5R)-3-(2-chloro-4-fluoro-benzoyl)-3,8-diazabicyclo[3.2.1]octan-8-yl]-4-(methoxymethoxy)-N-methyl-N-propyl-benzenesulfonamide]", "values": [{"measurement": "EC50", "value": "1000 to 10000", "unit": "nM"}]}
{"smiles": "COc1c(Cl)cc(S(=O)(=O)NC(C)(C)C)cc1N1[C@@H]2CC[C@H]1CN(C(=O)c1ccc(F)cc1Cl)C2", "note": "[compound 114, N-tert-butyl-3-chloro-5-[(1S,5R)-3-(2-chloro-4-fluoro-benzoyl)-3,8-diazabicyclo[3.2.1]octan-8-yl]-4-methoxy-benzenesulfonamide]", "values": [{"measurement": "EC50", "value": "< 1000", "unit": "nM"}]}
{"smiles": "Cc1c(Cl)cc(S(=O)(=O)NC(C)(C)C)cc1N1[C@@H]2CC[C@H]1CN(C(=O)c1ccc(F)cc1Cl)C2", "note": "[compound 074, N-tert-butyl-3-chloro-5-[(1S,5R)-3-(2-chloro-4-fluoro-benzoyl)-3,8-diazabicyclo[3.2.1]octan-8-yl]-4-methyl-benzenesulfonamide]", "values": [{"measurement": "EC50", "value": "< 1000", "unit": "nM"}]}
{"smiles": "COc1ccc(S(=O)(=O)N2CCN(CC(C)c3ccc(F)cc3)CC2)cc1N1C2CCC1CN(C(=O)c1ccc(F)cc1Cl)C2", "note": "(racemic) [compound 045, (2-chloro-4-fluoro-phenyl)-[(1S,5R)-8-[5-[4-[(2RS)-2-(4-fluorophenyl)propyl]piperazin-1-yl]sulfonyl-2-methoxy-phenyl]-3,8-diazabicyclo[3.2.1]octan-3-yl]methanone]", "values": [{"measurement": "EC50", "value": "< 1000", "unit": "nM"}]}
{"smiles": "Cc1ccc(S(=O)(=O)N2CCN(CCc3ccc(F)cc3)CC2)cc1N1[C@@H]2CC[C@H]1CN(C(=O)c1ccc(F)cc1Cl)C2", "note": "[compound 116, (2-chloro-4-fluoro-phenyl)-[(1S,5R)-8-[5-[4-[2-(4-fluorophenyl)ethyl]piperazin-1-yl]sulfonyl-2-methyl-phenyl]-3,8-diazabicyclo[3.2.1]octan-3-yl]methanone]", "values": [{"measurement": "EC50", "value": "< 1000", "unit": "nM"}]}
{"smiles": "COc1ccc(S(=O)(=O)NC(C)(C)C)cc1N1CCN(C(=O)c2ccc(F)cc2Cl)CC1C", "note": "(racemic) [compound 020, N-tert-butyl-4-methoxy-3-[rac-(2S)-4-(2-chloro-4-fluoro-benzoyl)-2-methyl-piperazin-1-yl]benzenesulfonamide]", "values": [{"measurement": "EC50", "value": "10000 to 50000", "unit": "nM"}]}
{"smiles": "O=C(c1ccc(F)cc1Cl)N1C[C@H]2CC[C@@H](C1)N2c1cc(S(=O)(=O)N2CCN(CCc3ccc(Cl)cc3)CC2)ccc1O", "note": "[compound 064, (2-chloro-4-fluoro-phenyl)-[(1S,5R)-8-[5-[4-[2-(4-chlorophenyl)ethyl]piperazin-1-yl]sulfonyl-2-hydroxy-phenyl]-3,8-diazabicyclo[3.2.1]octan-3-yl]methanone]", "values": [{"measurement": "EC50", "value": "< 1000", "unit": "nM"}]}
{"smiles": "COc1ccc(S(=O)(=O)N2CCC(=Cc3ccccc3)CC2)cc1N1[C@@H]2CC[C@H]1CN(C(=O)c1ccc(F)cc1Cl)C2", "note": "[compound 008, [(1S,5R)-8-[5-[(4-benzylidene-1-piperidyl)sulfonyl]-2-methoxy-phenyl]-3,8-diazabicyclo[3.2.1]octan-3-yl]-(2-chloro-4-fluoro-phenyl)methanone]", "values": [{"measurement": "EC50", "value": "< 1000", "unit": "nM"}]}
{"smiles": "O=C(c1ccc(F)cc1Cl)N1C[C@H]2CC[C@@H](C1)N2c1cc(S(=O)(=O)N2CCN(CCc3ccc(Cl)cc3)CC2)ccc1OCCO", "note": "[compound 078, (2-chloro-4-fluoro-phenyl)-[(1S,5R)-8-[5-[4-[2-(4-chlorophenyl)ethyl]piperazin-1-yl]sulfonyl-2-(2-hydroxyethoxy)phenyl]-3,8-diazabicyclo[3.2.1]octan-3-yl]methanone]", "values": [{"measurement": "EC50", "value": "< 1000", "unit": "nM"}]}
{"smiles": "CCCN(C)S(=O)(=O)c1ccc(OC(F)(F)F)c(N2[C@@H]3CC[C@H]2CN(C(=O)c2ccc(F)cc2Cl)C3)c1", "note": "[compound 027, 3-[(1S,5R)-3-(2-chloro-4-fluoro-benzoyl)-3,8-diazabicyclo[3.2.1]octan-8-yl]-N-methyl-N-propyl-4-(trifluoromethoxy)benzene sulfonamide]", "values": [{"measurement": "EC50", "value": "1000 to 10000", "unit": "nM"}]}
